Read-outs that look alike come from different tables or passages of the source.
Experiments:
BACE1 = BACE1 (Homo sapiens, UniProt P56817); experiment: In vitro enzymatic BACE FRET assay; type: biochemical; settings: average IC50; read-out: BACE1 Enzyme assay IC50
Outline: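 Fluorescence (excitation 488 nm, […]) from cleavage of quenched peptide substrate (50 nM), reaction run 1 h after 1 h enzyme–inhibitor pre-incubation, then neutralised with Tris. Conditions: 0.2 nM enzyme, pH 4.2 acetate 0.05 M, 10% DMSO final, 100 uM genapol.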

human Bace2 protein = target: T1, human Bace2 protein (Homo sapiens, UniProt Q9Y5Z0); experiment: In vitro enzymatic BACE2 FRET assay; type: biochemical; settings: average IC50; read-out: BACE2 Enzyme assay IC50
T1 construct: V5 (C); 6-His (C)
T1 sequence (Q9Y5Z0 63-518): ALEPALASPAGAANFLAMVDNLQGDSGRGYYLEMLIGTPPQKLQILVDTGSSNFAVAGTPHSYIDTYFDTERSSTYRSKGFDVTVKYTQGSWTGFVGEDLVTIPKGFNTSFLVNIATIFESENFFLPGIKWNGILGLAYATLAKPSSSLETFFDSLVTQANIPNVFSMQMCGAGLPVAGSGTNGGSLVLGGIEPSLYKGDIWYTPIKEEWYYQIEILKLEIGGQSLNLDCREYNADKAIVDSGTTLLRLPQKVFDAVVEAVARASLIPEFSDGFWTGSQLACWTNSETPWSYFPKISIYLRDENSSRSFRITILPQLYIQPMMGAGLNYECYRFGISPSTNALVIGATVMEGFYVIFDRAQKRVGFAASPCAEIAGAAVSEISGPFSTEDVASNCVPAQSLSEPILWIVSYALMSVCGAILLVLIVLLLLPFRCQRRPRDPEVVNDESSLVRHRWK
Outline: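 Human Bace2 with C-terminal V5/6-His tag (0.2 nM) pre-incubated 1 h with inhibitor in 0.05 M acetate pH 4.2, 10% DMSO, 100 uM genapol; reaction started with 50 nM FRET peptide substrate, run 1 h. Stopped with Tris to neutral pH; fluorescence increase from substrate cleavage measured.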

Abeta 40 = experiment: In vivo inhibition of beta-secretase: percent Abeta 40 reduction in CSF and brain; set-up: species or system rat; settings: after 4 hrs; for inhibition in vivo at 10 mg/kg: 10 mpk
Outline: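 Test compound was given by oral gavage in 2% HPMC, 1% Tween80, pH 2.2 (e.g., 30 mg/kg to male Sprague Dawley rats), or IV in 5% EtOH/45% propylene glycol in 5% dextrose. Four hours later, Abeta40 in CSF and in brain homogenate (DEA or Triton extraction) was measured by ECL sandwich ELISA (4G8 capture, Fab40 detection). Reduction is expressed relative to vehicle-treated animals.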

[1] = Abeta 40, rat CSF, read-out: % reduction of rat CSF levels at 10 pmk
[2] = Abeta 40, rat brain, read-out: % reduction of rat brain levels at 10 mpk

Sequence of BACE1 (P56817 46-501, species assumed): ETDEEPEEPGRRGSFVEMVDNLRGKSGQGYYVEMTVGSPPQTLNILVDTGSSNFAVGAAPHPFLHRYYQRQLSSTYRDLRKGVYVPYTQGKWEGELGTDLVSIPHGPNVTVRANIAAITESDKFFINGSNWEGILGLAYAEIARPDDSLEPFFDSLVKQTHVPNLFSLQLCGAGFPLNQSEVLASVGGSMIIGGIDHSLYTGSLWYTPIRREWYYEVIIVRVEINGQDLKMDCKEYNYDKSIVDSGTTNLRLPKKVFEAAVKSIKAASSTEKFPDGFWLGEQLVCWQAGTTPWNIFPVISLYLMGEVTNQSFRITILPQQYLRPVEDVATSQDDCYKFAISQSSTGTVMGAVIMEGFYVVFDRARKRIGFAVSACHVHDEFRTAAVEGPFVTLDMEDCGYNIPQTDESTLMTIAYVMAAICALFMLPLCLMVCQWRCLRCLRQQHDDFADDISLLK

Structure (SMILES) | IC50 (BACE1) [nM] | IC50 (human Bace2 protein) [nM] | inhibition in vivo at 10 mg/kg (Abeta 40; [1]) [%] | inhibition in vivo at 10 mg/kg (Abeta 40; [2]) [%] | % reduction of rat CSF levels (3 mpk) (Abeta 40; Abeta 40, rat CSF, 3 mpk) | % reduction of rat brain levels (3 mpk) (Abeta 40; Abeta 40, rat brain, 3 mpk)
Cc1cc(Cl)cnc1C(=O)Nc1ccc(F)c([C@@]2(C)N=C(N)[C@@]3(CF)CC[C@@H]2S3(=O)=O)c1 [Example 88, N-(3-((1S,2R,5R)-4-amino-5-(fluoromethyl)-2-methyl-8,8-dioxido-8-thia-3-azabicyclo[3.2.1]oct-3-en-2-yl)-4-fluorophenyl)-5-chloro-3-methyl-2-pyridinecarboxamide] | 3 | 0.8 | 77 | 70 |  | 
Cc1cc(C#N)cnc1C(=O)Nc1ccc(F)c([C@@]2(C)N=C(N)[C@@]3(CF)CC[C@@H]2S3(=O)=O)c1 [Example 96, N-(3-((1S,2R,5R)-4-amino-5-(fluoromethyl)-2-methyl-8,8-dioxido-8-thia-3-azabicyclo[3.2.1]oct-3-en-2-yl)-4-fluorophenyl)-5-cyano-3-methyl-2-pyridinecarboxamide] | 2 | 1 |  |  | 60 (3 mpk) % | 39 (3 mpk) %
COc1cnc2c(Nc3ccc(F)c([C@@]4(C)N=C(N)[C@@]5(CF)CC[C@@H]4S5(=O)=O)c3)ncnc2c1 [Example 97, N-(3-((1S,2R,5R)-4-amino-5-(fluoromethyl)-2-methyl-8,8-dioxido-8-thia-3-azabicyclo[3.2.1]oct-3-en-2-yl)-4-fluorophenyl)-7-methoxypyrido[3,2-d]pyrimidin-4-amine] | 7 | 20 | 75 | 76 |  | 
C[C@]1(c2cc(Nc3nccc4cc(C#N)cnc34)ccc2F)N=C(N)[C@@]2(CF)CC[C@@H]1S2(=O)=O [Example 100, 8-((3-((1S,2R,5R)-4-amino-5-(fluoromethyl)-2-methyl-8,8-dioxido-8-thia-3-azabicyclo[3.2.1]oct-3-en-2-yl)-4-fluorophenyl)amino)-1,7-naphthyridine-3-carbonitrile] | 1 | 0.6 | 67 | 59 |  | 
Cc1cc(OC(F)F)cnc1C(=O)Nc1ccc(F)c([C@@]2(C)N=C(N)[C@@]3(CF)CC[C@@H]2S3(=O)=O)c1 [Example 102, N-(3-((1S,2R,5R)-4-amino-5-(fluoromethyl)-2-methyl-8,8-dioxido-8-thia-3-azabicyclo[3.2.1]oct-3-en-2-yl)-4-fluorophenyl)-5-(difluoromethoxy)-3-methyl-2-pyridinecarboxamide] | 4 | 8 | 67 | 68 |  | 
C[C@]1(c2cc(Nc3nccc4nc(OCc5ncco5)cnc34)ccc2F)N=C(N)[C@@]2(CF)CC[C@@H]1S2(=O)=O [Example 104, N-(3-((1S,2R,5R)-4-amino-5-(fluoromethyl)-2-methyl-8,8-dioxido-8-thia-3-azabicyclo[3.2.1]oct-3-en-2-yl)-4-fluorophenyl)-2-(1,3-oxazol-2-ylmethoxy)pyrido[3,4-b]pyrazin-5-amine] | 2 | 3 | 74 | 71 |  | 

Second part, led by results:

IC50 (BACE1) [nM] | IC50 (human Bace2 protein) [nM] | Structure (SMILES) | inhibition in vivo at 10 mg/kg (Abeta 40; [1]) [%] | inhibition in vivo at 10 mg/kg (Abeta 40; [2]) [%] | % reduction of rat CSF levels (3 mpk) (Abeta 40; Abeta 40, rat CSF, 3 mpk) | % reduction of rat brain levels (3 mpk) (Abeta 40; Abeta 40, rat brain, 3 mpk)
11 | 67 | C[C@]1(c2cc(Nc3ncnc4cc(C(F)(F)F)cnc34)ccc2F)N=C(N)[C@@]2(C)CC[C@@H]1S2(=O)=O [Example 106, N-(3-((1S,2R,5R)-4-amino-2,5-dimethyl-8,8-dioxido-8-thia-3-azabicyclo[3.2.1]oct-3-en-2-yl)-4-fluorophenyl)-7-(trifluoromethyl)pyrido[3,2-d]pyrimidin-4-amine] | 59 | 29 |  | 
6 | 51 | COc1cnc2c(Nc3ccc(F)c([C@@]4(C)N=C(N)[C@@]5(C)CC[C@@H]4S5(=O)=O)c3)ncnc2c1 [Example 132, N-(3-((1S,2R,5R)-4-amino-2,5-dimethyl-8,8-dioxido-8-thia-3-azabicyclo[3.2.1]oct-3-en-2-yl)-4-fluorophenyl)-7-methoxypyrido[3,2-d]pyrimidin-4-amine] | 70 | 50 |  | 
1 | 20 | C[C@]1(c2cc(Nc3nccc4nc(OCc5ncco5)cnc34)ccc2F)N=C(N)[C@@]2(C)CC[C@@H]1S2(=O)=O [Example 140, N-(3-((1S,2R,5R)-4-amino-2,5-dimethyl-8,8-dioxido-8-thia-3-azabicyclo[3.2.1]oct-3-en-2-yl)-4-fluorophenyl)-2-(1,3-oxazol-2-ylmethoxy)pyrido[3,4-b]pyrazin-5-amine] | 41 | 39 |  | 

Reference: US9096615B2, “Bridged bicyclic amino thiazine dioxide compounds as inhibitors of beta-secretase and methods of use thereof” (AMGEN INC., priority 2013, dated 2015)
